Results on 36 compounds are retold here after patent US10513523B2, “Imidazopyrazines and pyrazolopyrimidines and their use as AMPA receptor modulators” (Janssen Pharmaceutica NV, priority 2015, dated 2019).

For the assay, the target named is GluA1o-γ8 (GRIA1o-CACNG8 fusion construct; TARP γ8 dependent AMPA receptor) (Homo sapiens (Human), UniProt P42261+Q8WXS5). Kind of assay: Calcium flux assay (FLIPR), inhibition of glutamate response of GluA1o-γ8 channel. As to conditions: HEK293 cells stably expressing GRIA1o-CACNG8 fusion; 15 μM glutamate; pIC50 = negative log of IC50 in molar; read-out: GluR1-γ8 (pIC50) (converted). It is filed as cell-based. A digest of the protocol: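 Potency is the midpoint of a four-parameter logistic fit to control-normalized FLIPR calcium responses elicited by 15 μM glutamate. Stable HEK293 cells carried a fused GluA1o-γ8 construct and were preincubated with compound and calcium dye in pH 7.4 HEPES buffer.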
Sequence of GluA1o-γ8 (GRIA1o-CACNG8 fusion construct; TARP γ8 dependent AMPA receptor) (P42261 other isoform, or with tags, fused parts or gaps): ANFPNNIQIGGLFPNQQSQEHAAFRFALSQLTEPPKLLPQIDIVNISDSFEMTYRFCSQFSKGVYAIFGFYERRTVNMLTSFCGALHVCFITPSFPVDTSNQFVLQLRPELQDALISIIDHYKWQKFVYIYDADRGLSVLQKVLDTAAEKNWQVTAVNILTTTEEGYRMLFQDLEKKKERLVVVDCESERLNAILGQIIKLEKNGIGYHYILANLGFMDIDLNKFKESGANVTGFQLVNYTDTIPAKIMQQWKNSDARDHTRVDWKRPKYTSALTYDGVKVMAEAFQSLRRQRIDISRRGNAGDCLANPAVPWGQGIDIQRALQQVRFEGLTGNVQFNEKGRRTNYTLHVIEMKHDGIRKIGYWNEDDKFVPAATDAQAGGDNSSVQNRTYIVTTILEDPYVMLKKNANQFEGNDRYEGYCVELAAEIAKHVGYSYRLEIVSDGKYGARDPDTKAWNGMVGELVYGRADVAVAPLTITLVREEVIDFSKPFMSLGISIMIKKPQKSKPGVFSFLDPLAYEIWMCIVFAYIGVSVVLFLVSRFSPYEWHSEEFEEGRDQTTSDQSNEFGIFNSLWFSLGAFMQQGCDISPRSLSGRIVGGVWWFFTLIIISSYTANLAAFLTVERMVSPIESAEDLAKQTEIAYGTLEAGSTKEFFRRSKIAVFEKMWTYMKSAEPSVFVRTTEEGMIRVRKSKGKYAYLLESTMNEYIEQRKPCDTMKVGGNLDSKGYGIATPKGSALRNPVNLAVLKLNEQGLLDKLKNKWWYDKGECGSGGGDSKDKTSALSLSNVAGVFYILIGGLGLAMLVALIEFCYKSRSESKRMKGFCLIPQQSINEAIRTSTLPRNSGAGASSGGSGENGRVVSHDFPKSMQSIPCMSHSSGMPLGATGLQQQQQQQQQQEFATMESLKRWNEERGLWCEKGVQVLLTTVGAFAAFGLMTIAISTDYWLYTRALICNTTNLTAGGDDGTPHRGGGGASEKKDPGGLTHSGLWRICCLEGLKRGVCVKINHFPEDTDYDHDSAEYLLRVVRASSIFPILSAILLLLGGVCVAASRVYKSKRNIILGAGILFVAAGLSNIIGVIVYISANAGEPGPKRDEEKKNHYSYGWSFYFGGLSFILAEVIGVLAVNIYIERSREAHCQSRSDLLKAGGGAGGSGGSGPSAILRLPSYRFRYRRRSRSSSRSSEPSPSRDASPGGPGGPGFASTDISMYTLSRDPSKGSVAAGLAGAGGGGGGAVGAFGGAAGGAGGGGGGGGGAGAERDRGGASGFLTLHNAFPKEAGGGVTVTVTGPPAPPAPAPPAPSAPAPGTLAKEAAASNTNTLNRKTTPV
Background: Calcium assays in cells follow changes in intracellular calcium, usually with a dye or a luminescent sensor.
In the case of `O=C(NC1CCCCC1)c1nc2c(N3CCOCC3)nccn2c1-c1ccc2[nH]c(=O)[nH]c2c1` [Example 214, N-Cyclohexyl-8-morpholino-3-(2-oxo-1,3-dihydrobenzimidazol-5-yl)imidazo[1,2-a]pyrazine-2-carboxamide], the IC50 is 31.6 nM. Take `O=C1Cc2cc(-c3c(-c4ccncc4)nc4c(N5CCC(O)CC5)nccn34)ccc2N1` [Example 215, 5-[8-(4-Hydroxy-1-piperidyl)-2-(4-pyridyl)imidazo[1,2-a]pyrazin-3-yl]indolin-2-one]: the IC50 was 39.8 nM. The same measure for `O=c1[nH]c2ccc(-c3c(C4CC4)nc4cnc(C(F)(F)F)cn34)cc2s1` [Example 216, 6-[2-Cyclopropyl-6-(trifluoromethyl)imidazo[1,2-a]pyrazin-3-yl]-3H-1,3-benzothiazol-2-one]: 501 nM; for `O=C1Cc2cc(-c3c(-c4ccccc4)nc4cnc(C(F)(F)F)cn34)ccc2N1` [Example 218, 5-[2-Phenyl-6-(trifluoromethyl)imidazo[1,2-a]pyrazin-3-yl]indolin-2-one]: 100 nM; for `O=C1Cc2cc(-c3c(C4CC4)nc4cnc(C(F)(F)F)cn34)ccc2N1` [Example 219, 5-[2-Cyclopropyl-6-(trifluoromethyl)imidazo[1,2-a]pyrazin-3-yl]indolin-2-one]: 6310 nM. In the case of `CC(C)(C)c1nc2c(N3CCC(=O)CC3)nccn2c1-c1ccc2c(c1)CC(=O)N2` [Example 220, 5-[2-tert-Butyl-8-(4-oxo-1-piperidyl)imidazo[1,2-a]pyrazin-3-yl]indolin-2-one], the IC50 is 63.1 nM. Turning to `O=C(Nc1ccccn1)c1nc2c(N3CCOCC3)nccn2c1-c1ccc2[nH]c(=O)[nH]c2c1` [Example 221, 8-Morpholino-3-(2-oxo-1,3-dihydrobenzimidazol-5-yl)-N-(2-pyridyl)imidazo[1,2-a]pyrazine-2-carboxamide], the IC50 was 31.6 nM. On to `O=C1Cc2cc(-c3c(-c4ccccc4)nn4cnc(C(F)(F)F)cc34)ccc2N1` [Example 222, 5-[2-Phenyl-5-(trifluoromethyl)pyrazolo[1,5-c]pyrimidin-3-yl]indolin-2-one], for which the IC50 was 12.6 nM. The same measure for `O=c1[nH]c2ccc(-c3c(-c4ccccc4)nn4cnc(C(F)(F)F)cc34)cc2o1` [Example 223, 6-[2-Phenyl-5-(trifluoromethyl)pyrazolo[1,5-c]pyrimidin-3-yl]-3H-1,3-benzoxazol-2-one]: 501 nM.

As for `O=c1[nH]c2ccc(-c3c(-c4ccccc4)nn4cnc(C(F)(F)F)cc34)cc2s1` [Example 224, 6-[2-phenyl-5-(trifluoromethyl)pyrazolo[1,5-c]pyrimidin-3-yl]-3H-1,3-benzothiazol-2-one], the IC50 was 20 nM. As for `CC(C)(C)c1nn2cnc(C(F)(F)F)cc2c1-c1ccc2c(c1)CC(=O)N2` [Example 225, 5-[2-tert-Butyl-5-(trifluoromethyl)pyrazolo[1,5-c]pyrimidin-3-yl]indolin-2-one], the IC50 is 501 nM. As for `O=C1Cc2cc(-c3c(C4CCC4)nn4cnc(C(F)(F)F)cc34)ccc2N1` [Example 226, 5-[2-Cyclobutyl-5-(trifluoromethyl)pyrazolo[1,5-c]pyrimidin-3-yl]indolin-2-one], the IC50 is 794 nM.

Consider `CC(C)c1nn2cnc(C(F)(F)F)cc2c1-c1ccc2c(c1)CC(=O)N2` [Example 227, 5-[2-Isopropyl-5-(trifluoromethyl)pyrazolo[1,5-c]pyrimidin-3-yl]indolin-2-one], for which the IC50 is 1580 nM. Consider `O=C1Cc2cc(-c3c(C4CC4)nn4cnc(C(F)(F)F)cc34)ccc2N1` [Example 228, 5-[2-Cyclopropyl-5-(trifluoromethyl)pyrazolo[1,5-c]pyrimidin-3-yl]indolin-2-one], for which the IC50 was 39800 nM. The same measure for `O=c1[nH]c2ccc(-c3c(C4CCC4)nn4cnc(C(F)(F)F)cc34)cc2s1` [Example 229, 6-[2-Cyclobutyl-5-(trifluoromethyl)pyrazolo[1,5-c]pyrimidin-3-yl]-3H-1,3-benzothiazol-2-one]: 15.8 nM; for `O=c1[nH]c2ccc(-c3c(C4CC4)nn4cnc(C(F)(F)F)cc34)cc2s1` [Example 230, 6-[2-Cyclopropyl-5-(trifluoromethyl)pyrazolo[1,5-c]pyrimidin-3-yl]-3H-1,3-benzothiazol-2-one]: 398 nM. The same measure for `CC(C)c1nn2cnc(C(F)(F)F)cc2c1-c1ccc2[nH]c(=O)sc2c1` [Example 231, 6-[2-Isopropyl-5-(trifluoromethyl)pyrazolo[1,5-c]pyrimidin-3-yl]-3H-1,3-benzothiazol-2-one]: 63.1 nM; for `CC(C)(C)c1nn2cnc(C(F)(F)F)cc2c1-c1ccc2[nH]c(=O)sc2c1` [Example 232, 6-[2-tert-Butyl-5-(trifluoromethyl)pyrazolo[1,5-c]pyrimidin-3-yl]-3H-1,3-benzothiazol-2-one]: 316 nM; for `c1ccc(-c2nn3c(N4CCOCC4)nccc3c2-c2ccc3[nH]ncc3c2)cc1` [Example 233, 4-[3-(1H-Indazol-5-yl)-2-phenyl-pyrazolo[1,5-c]pyrimidin-7-yl]morpholine]: 0.398 nM. The same measure for `COC1CCN(c2nccc3c(-c4ccc5[nH]ncc5c4)c(-c4ccccc4)nn23)CC1` [Example 234, 3-(1H-Indazol-5-yl)-7-(4-methoxy-1-piperidyl)-2-phenyl-pyrazolo[1,5-c]pyrimidine]: 0.631 nM. Regarding `CC(C)c1nn2c(N3CCOCC3)ncc(F)c2c1-c1ccc2c(c1)CC(=O)N2` [Example 235, 5-(4-Fluoro-2-isopropyl-7-morpholino-pyrazolo[1,5-c]pyrimidin-3-yl)indolin-2-one], the IC50 was 501 nM.

Turning to `CC(C)c1nn2c(N3CCOCC3)ncc(F)c2c1-c1ccc2[nH]ncc2c1` [Example 236, 4-[4-Fluoro-3-(1H-indazol-5-yl)-2-isopropyl-pyrazolo[1,5-c]pyrimidin-7-yl]morpholine], the IC50 was 158 nM. As for `COC1CCN(c2nccc3c(-c4ccc5[nH]ncc5c4)c(C(C)C)nn23)CC1` [Example 237, 3-(1H-indazol-5-yl)-2-isopropyl-7-(4-methoxy-1-piperidyl)pyrazolo[1,5-c]pyrimidine], the IC50 is 126 nM. As for `CC(C)c1nn2c(N3CCOCC3)nccc2c1-c1ccc2[nH]ncc2c1` [Example 238, 4-[3-(1H-Indazol-5-yl)-2-isopropyl-pyrazolo[1,5-c]pyrimidin-7-yl]morpholine], the IC50 is 398 nM. The same measure for `Cc1cnc(N2CCOCC2)n2nc(C(C)C)c(-c3ccc4[nH]ncc4c3)c12` [Example 239, 4-[3-(1H-Indazol-5-yl)-2-isopropyl-4-methyl-pyrazolo[1,5-c]pyrimidin-7-yl]morpholine]: 39.8 nM. The same measure for `CC(C)c1nn2c(N3CCOCC3)nccc2c1-c1ccc2[nH]c(=O)sc2c1` [Example 240, 6-(2-Isopropyl-7-morpholino-pyrazolo[1,5-c]pyrimidin-3-yl)-3H-1,3-benzothiazol-2-one]: 15.8 nM; for `COC1CCN(c2nccc3c(-c4ccc5[nH]c(=O)sc5c4)c(C(C)C)nn23)CC1` [Example 241, 6-[2-Isopropyl-7-(4-methoxy-1-piperidyl)pyrazolo[1,5-c]pyrimidin-3-yl]-3H-1,3-benzothiazol-2-one]: 2.51 nM; for `O=c1[nH]c2ccc(-c3c(-c4ccccc4)nn4c(N5CCOCC5)nccc34)cc2s1` [Example 242, 6-(7-Morpholino-2-phenyl-pyrazolo[1,5-c]pyrimidin-3-yl)-3H-1,3-benzothiazol-2-one]: 0.0501 nM.

With `Cc1cnc(N2CCOCC2)n2nc(C(C)C)c(-c3ccc4[nH]c(=O)sc4c3)c12` [Example 243, 6-(2-Isopropyl-4-methyl-7-morpholino-pyrazolo[1,5-c]pyrimidin-3-yl)-3H-1,3-benzothiazol-2-one], the IC50 was 3.98 nM. The same measure for `Cc1cnc(N2CCOCC2)n2nc(C(C)C)c(-c3ccc4c(c3)CC(=O)N4)c12` [Example 244, 5-(2-Isopropyl-4-methyl-7-morpholino-pyrazolo[1,5-c]pyrimidin-3-yl)indolin-2-one]: 79.4 nM. The same measure for `O=c1[nH]c2ccc(-c3c(-c4ccccc4)nc4cnc(C(F)(F)F)cn34)cc2s1` [Example 245, 6-[2-Phenyl-6-(trifluoromethyl)imidazo[1,2-a]pyrazin-3-yl]-3H-1,3-benzothiazol-2-one]: 12.6 nM. The same measure for `O=C1CN(c2nccn3c(-c4ccc5c(c4)CC(=O)N5)c(C(=O)c4ccccc4)nc23)CCN1` [Example 246, 5-[2-Benzoyl-8-(3-oxopiperazin-1-yl)imidazo[1,2-a]pyrazin-3-yl]indolin-2-one]: 31.6 nM; for `COc1nccn2c(-c3ccc4c(c3)CC(=O)N4)c(-c3ccc(F)cc3)nc12` [Example 247, 5-[2-(4-Fluorophenyl)-8-methoxy-imidazo[1,2-a]pyrazin-3-yl]indolin-2-one]: 79.4 nM. On to `Nc1nccn2c(-c3ccc4c(c3)CC(=O)N4)c(-c3ccc(F)cc3)nc12` [Example 248, 5-[8-Amino-2-(4-fluorophenyl)imidazo[1,2-a]pyrazin-3-yl]indolin-2-one], for which the IC50 is 5010 nM. As to `O=c1[nH]c2ccc(-c3c(-c4ccc(F)cc4)nc4c(O)nccn34)cc2[nH]1` [Example 249, 5-[2-(4-Fluorophenyl)-8-hydroxy-imidazo[1,2-a]pyrazin-3-yl]-1,3-dihydrobenzimidazol-2-one], the IC50 is 1580 nM. The same measure for `CC(=O)N[C@@H]1CCN(c2nccn3c(-c4ccc5c(c4)CC(=O)N5)c(-c4ccc(F)cc4)nc23)C1` [Example 250, N-[(3R)-1-[2-(4-Fluorophenyl)-3-(2-oxoindolin-5-yl)imidazo[1,2-a]pyrazin-8-yl]pyrrolidin-3-yl]acetamide]: 39.8 nM.
